In series [1] the test system is Herpes simplex type 1 virus, strain SC16. Kind of series: Virus cytopathic effect (CPE) reduction, Herpes simplex type 1 virus strain SC16 in MRC-5 cells (Method 2). The format is cell-based. The conditions noted are these: 50% reduction of virus CPE, 3 days at 37° C.; for IC50: Human alphaherpesvirus 1, SC16, MRC5, 72 h, read-out: PDD50 Herpes simplex type 1 virus SC16 strain in MRC-5 cells. The procedure:
(§1) MRC-5 cells were infected in suspension with Herpes simplex type 1 virus, strain SC16. The infected cell suspension was dispensed (0.1 ml) in 96 well microtitre plates containing the test drugs in maintenance medium in concentrations ranging from 100 to 0.03 μg/ml in half-log dilution steps (0.1 ml per well). The plates were then icubated at 37° C. for 3 days when the virus cytopathic effect (CPE) in the control wells reached 100%. The plates were fixed in 4% formaldehyde solution and stained with carbol fuchsin. […] Plates using uninfected cells were run in parallel to determine the minimum concentration of test compound which caused cytotoxicity (MTD).
On the technique in general: Cytopathic effects are the visible damage that an infection or toxin causes in cultured cells.

Series [2] concerns Herpes simplex type 1 virus (HFEM strain). The series is described as follows: Plaque reduction, Herpes simplex type 1 virus (HFEM strain) in Vero cells (Method 1). Type of series: cell-based. The following applies: 50% reduction in number of virus plaques, 4 days at 37° C.; for IC50: Human alphaherpesvirus 1, Vero, 96 h, read-out: PDD50 Herpes simplex type 1 virus HFEM strain in Vero cells. How it is done: (§2) Vero (Arican Green Monkey Kidney) cells were grown to confluence in 24 well multidishes, each well being 1.6 cm in diameter. The cells were infected with Herpes simplex type 1 virus (HFEM strain) and overlaid with 0.5 ml of 0.9% agarose (w/v) in maintenance medium. The test compound, prepared in maintenance medium in concentrations ranging from 100 to 0.3 μg/ml in half-log dilution steps, was added in 0.5 ml volume. The virus infected cultures were then incubated at 37° C. for 4 days before fixing in 4% formaldehyde solution and staining with carbol fuchsin.

The test system of series [3] is Herpes simplex type 2 virus (MS strain). The series is described as follows: Virus CPE reduction, Herpes simplex type 2 virus (MS strain) in MRC-5 cells (Method 2, 24 hours incubation). The format is cell-based. The conditions noted are these: Human alphaherpesvirus 2, MRC5, Method 2, CPE reduction, incubation 24 hours, read-out: PDD50 Herpes simplex type 2 virus MS strain in MRC-5 cells. How it is done: as §1
(§3) Compounds were also tested against Herpes simplex type 2 virus (MS strain) in Vero cells using Method 1 and in MRC-5 cells using Method 2. In the latter test, the incubation time was reduced to 24 hours.

For series [4] the test system is unchanged. The series is described as follows: Plaque reduction, Herpes simplex type 2 virus (MS strain) in Vero cells (Method 1). The conditions noted are these: Human alphaherpesvirus 2, Method 1, plaque reduction, read-out: PDD50 Herpes simplex type 2 virus MS strain in Vero cells. The format is cell-based. The procedure: as §2, §3
Series [5] in a line: Blood concentration of 9-(4-hydroxy-3-hydroxymethylbut-1-yl)guanine in mice after oral administration of derivatives (Method 3). Type of series: in vivo. The following applies: female Balb/C mice, oral gavage 0.2 mmoles/kg of administered compound, blood 15 minutes later, pooled from three mice; analyte 9-(4-hydroxy-3-hydroxymethylbut-1-yl)guanine. How it is done: Compounds were administered by oral gavage (0.2 mmoles/kg in 0.1 ml of 1% carboxymethyl cellulose) to 20 g female Balb/C mice which had been starved for 18 hours. Fifteen minutes later, blood was collected from three mice by cardiac puncture using heparinised syringes. Equal aliquots were pooled and an equal volume of 16% trichloroacetic acid added. Following centrifugation (8,500 g) to remove precipitated proteins, the resulting mixture was analysed by high performance liquid chromatography using a C18 Nova-Pak cartridge eluted with Buffer A (50 mM NaH2PO4, pH4.6) and Buffer B (10% Buffer A, 10% water, 80% methanol) in a gradient from 1% to 95% Buffer B. 9-(4-Hydroxy-3-hydroxymethylbut-1-yl)guanine was assayed with a Pye-Unicam PU4021 u.v. detector set at 254 nm.

The results in this text go back to patent publication US6573378B1, “Antiviral guanine derivatives” (Novartis International Pharmaceutical Ltd., priority 1983, dated 2003).

Structures are written as SMILES. Converted amounts (≈) assume the structure as drawn. Counter-ions that a name gives are not always drawn.

In general, melting point refers to the temperature of the solid-liquid transition.

As to `CC(C)Oc1nc(N)nc2c1ncn2CCC(CO)CO` [Example 38, 2-Amino-9-(4-hydroxy-3-hydroxymethylbut-1-yl)-6-isopropoxypurine], the melting point was 111.5 to 113.5 °C.
Regarding `Nc1nc2c(ncn2CCC(CO)CO)c(=O)[nH]1.[Na]` [Example 12, 9-(4-Hydroxy-3-hydroxymethylbut-1-yl)guanine, Sodium Salt], the IC50 in series [1] is 0.7 µg/mL; in series [2], 2.2 µg/mL.
Take `CCCCCCCCCCCCCCCC(=O)OCC(CO)CCn1cnc2c(=O)[nH]c(N)nc21` (stereo not shown) [Example 34, 9-(4-Hexadecanoyloxy-3-hydroxymethylbut-1-yl)guanine]: the melting point lay in the range of 183 to 191 °C. In addition, in series [1], the IC50 amounted to 2 µg/mL (≈ 4.07 µM). Besides, the IC50 in series [2] was determined as 16 µg/mL (≈ 32.5 µM).
`CC(=O)Nc1nc2c(ncn2CCC(CO)CO)c(=O)[nH]1` [Example 36, N^2-Acetyl-9-(4-hydroxy-3-hydroxymethylbut-1-yl)guanine] returned a melting point of 143 to 146 °C.
For the compound `CCC(=O)Nc1nc2c(ncn2CCC(COC(=O)CC)COC(=O)CC)c(=O)[nH]1` [Example 24, N^2-Propionyl-9-(4-propionyloxy-3-propionyloxymethyl-but-1-yl)guanine], the IC50 was over 100 µg/mL in series [1], 65 µg/mL (≈ 154 µM) in series [3], over 100 µg/mL in series [4] and over 100 µg/mL in series [2].
As to `N.N.Nc1nc2c(ncn2CCC(CO)COP(=O)(O)O)c(=O)[nH]1` (stereo not shown) [Example 35, 9-(4-Hydroxy-3-hydroxymethylbut-1-yl)guanine 4′-Phosphate Diammonium Salt], the “Concentration of Example 4 in Blood” value in series [5] was 1100 ng/mL.
The compound `Nc1nc2c(ncn2CCC(CO)COC(=O)c2ccccc2)c(=O)[nH]1` (stereo not shown) [Example 32, 9-(4-Benzoyloxy-3-hydroxymethylbut-1-yl)guanine] came in with a melting point of 156 to 168 °C. The IC50 in series [1] stood at 3 µg/mL (≈ 8.39 µM). In addition, the IC50 in series [2] worked out at 95 µg/mL (≈ 266 µM).
`CC(=O)OCC(CO)CCn1cnc2c(=O)[nH]c(N)nc21` (stereo not shown) [Example 31, 9-(4-Acetoxy-3-hydroxymethylbut-1-yl)guanine]: the melting point lay within 194 to 200 °C. Also, the IC50 in series [1] is 10 µg/mL (≈ 33.9 µM). Also, the IC50 in series [2] amounted to 24 µg/mL (≈ 81.3 µM).
In turn, `CCCCCC(=O)OCC(CO)CCn1cnc2c(=O)[nH]c(N)nc21` (stereo not shown) [Example 33, 9-(4-Hexanoyloxy-3-hydroxymethylbut-1-yl)guanine] showed a melting point of 179 to 181 °C.
On the same count and under the same terms, next, `CC(C)(C)C(=O)OCC(CCn1cnc2c(=O)[nH]c(N)nc21)COC(=O)C(C)(C)C` [Example 30, 9-(4-Pivalyloxy-3-pivalyloxymethylbut-1-yl)guanine]: 225 to 237 °C.
With `CCC(=O)OCC(CCn1cnc2c(=O)[nH]c(N)nc21)COC(=O)CC` [Example 23, 9-(4-Propionyloxy-3-propionyloxymethylbut-1-yl)guanine], the IC50 was 25 µg/mL (≈ 68.4 µM) in series [1], 85 µg/mL (≈ 233 µM) in series [3], over 100 µg/mL in series [4] and over 100 µg/mL in series [2].
For the compound `Nc1nc(N)c2ncn(CCC(CO)CO)c2n1` [Example 21, 2,6-Diamino-9-(4-hydroxy-3-hydroxymethylbut-1-yl)purine], the melting point lay in the range of 187 to 190 °C.
Still for that read-out and setting: with `Nc1nc2c(ncn2CCC(COC=O)COC=O)c(=O)[nH]1` [Example 26, 9-(4-Formyloxy-3-formyloxymethylbut-1-yl)guanine] the figure was 195 to 198 °C.
Take `Nc1nc2c(ncn2CCC(COC(=O)n2ccnc2)COC(=O)n2ccnc2)c(=O)[nH]1` [Example 27, 9-[4-(N-Imidazolylcarbonyloxy)-3-(N-imidazolylcarbonyloxymethyl)-but-1-yl]guanine]: the IC50 was 1.5 µg/mL (≈ 3.4 µM) in series [1], 5.7 µg/mL (≈ 12.9 µM) in series [3], 2.8 µg/mL (≈ 6.34 µM) in series [4] and 13 µg/mL (≈ 29.5 µM) in series [2].
In turn, `Nc1nc(Oc2ccccc2)c2ncn(CCC(CO)CO)c2n1` [Example 39, 2-Amino-9-(4-hydroxy-3-hydroxymethylbut-1-yl)-6-phenoxypurine] registered a melting point of 173 to 175 °C.
On the same count and under the same terms, next, `CCCCCC(=O)Nc1nc2c(ncn2CCC(CO)CO)c(=O)[nH]1` [Example 37, N^2-Hexanoyl-9-(4-hydroxy-3-hydroxymethylbut-1-yl)guanine]: 86 to 88 °C.
As for `Nc1nc2c(ncn2CCC(CO)CO)c(=O)[nH]1` [Example 13, 9-(4-Hydroxy-3-hydroxymethylbut-1-yl)guanine, Potassium Salt], the “PDD50 Herpes simplex type 1 virus SC16 strain in MRC-5 cells” value in series [1] (Potassium Salt) came out at 0.7 µg/mL. For the same compound, the “PDD50 Herpes simplex type 1 virus HFEM strain in Vero cells” value in series [2] (Potassium Salt) was 1.7 µg/mL.
Take `CCOc1nc(N)nc2c1ncn2CCC(CO)CO` [Example 16, 2-Amino-6-ethoxy-9-(4-hydroxy-3-hydroxymethylbut-1-yl)purine]: the melting point is 150 to 152 °C.
The compound `CC(=O)OCC(CCn1cnc2c(=O)[nH]c(N)nc21)COC(C)=O` [Example 22, 9-(4-Acetoxy-3-acetoxymethylbut-1-yl)guanine] yielded a melting point of 202 to 205 °C. In addition, the IC50 in series [1] was over 100 µg/mL. The IC50 in series [3] stood at 83 µg/mL (≈ 246 µM). Besides, the IC50 in series [4] is over 100 µg/mL. Besides, the IC50 in series [2] was over 100 µg/mL.
`CCCCCC(=O)OCC(CCn1cnc2c(=O)[nH]c(N)nc21)COC(=O)CCCCC` [Example 25, 9-(4-Hexanoyloxy-3-hexanoyloxymethylbut-1-yl)guanine] came in with a melting point of 198.5 to 201 °C. In addition, in series [1], the IC50 was found to be 1 µg/mL (≈ 2.22 µM). Further, the IC50 in series [3] is 0.9 µg/mL (≈ 2 µM). In addition, in series [4], the IC50 stood at 1.6 µg/mL (≈ 3.56 µM). Besides, in series [2], the IC50 is 1.9 µg/mL (≈ 4.23 µM).
For `COc1nc(N)nc2c1ncn2CCC(CO)CO` [Example 15, 2-Amino-9-(4-hydroxy-3-hydroxymethylbut-1-yl)-6-methoxypurine], in that order: 117 to 119 °C, over 100 µg/mL, 49 µg/mL (≈ 183 µM), 63 µg/mL (≈ 236 µM) and over 100 µg/mL.
Consider `Nc1nc2c(ncn2CCC(CO)CO)c(=O)[nH]1` [Example 4, 9-(4-Hydroxy-3-hydroxymethylbut-1-yl)guanine], for which the IC50 in series [1] is 0.9 µg/mL (≈ 3.55 µM); in series [3], 0.6 µg/mL (≈ 2.37 µM); in series [4] it was 2.3 µg/mL (≈ 9.08 µM); in series [2], 1.3 µg/mL (≈ 5.13 µM).
Compound `Nc1nc(OCc2ccccc2)c2ncn(CCC(CO)CO)c2n1` [Example 17, 2-Amino-6-benzyloxy-9-(4-hydroxy-3-hydroxymethylbut-1-yl)purine] gave a melting point of 146 to 147.5 °C.
